# Values joined by “and” are separate entries in the source; they are usually repeats but may differ in a detail not shown here. Equal entries are not always repeated.
# Biological target: catE / beta-secretase (BACE)
# Experiment: CatE/BACE selectivity (ratio of IC50 values)
# Format: biochemical
# Settings: each value is an average of four experimental runs; multiple values = more than one experiment
# Method: Selectivity was calculated as a ratio of inhibition (IC50) values in which the inhibition of beta-secretase was compared to the inhibition of other aspartyl proteases.
# Selectivity is reported as the ratio of IC50(catE):IC50(BACE).
# In the following examples, each value is an average of four experimental runs and multiple values for one compound indicate that more than one experiment was conducted.
row,Compound,IC50 catE/IC50 BACE
1,"CC(=O)NC(Cc1cc(F)cc(F)c1)C(O)CNC1(c2cccc(C(C)(C)C)c2)CCC([S+](C)[O-])CC1 (single isomer, unassigned) [196B-25 Diastereomer A, N-(4-(1-(3-tert-butylphenyl)-4-(methylsulfinyl)cyclohexylamino)-1-(3,5-difluorophenyl)-3-hydroxybutan-2yl)acetamide]",1.1
2,"CC(=O)NC(Cc1cc(F)cc(F)c1)C(O)CNC1(c2cccc(C(C)(C)C)c2)CCC(C)CC1 (centres unmarked) [Example 196B-5, N-[3-[1-(3-tert-Butyl-phenyl)-4-methyl-cyclohexylamino]-1-(3,5-difluoro-benzyl)-2-hydroxy-propyl]-acetamide]",3.1
3,"CSC1CCC(NCC(O)C(Cc2cc(F)cc(F)c2)NC(C)=O)(c2cccc(C(C)(C)C)c2)CC1 (single isomer, unassigned) [196B-15 Diastereomer B, N-[3-[1-(3-tert-Butyl-phenyl)-4-methylsulfanyl-cyclohexylamino]-1-(3,5-difluoro-benzyl)-2-hydroxy-propyl]-acetamide]",2.4 and > 2.5 and 2.3
4,"COC1CCC(NCC(O)C(Cc2cc(F)cc(F)c2)NC(C)=O)(c2cccc(C(C)(C)C)c2)CC1 (single isomer, unassigned) [196B-4 Diastereomer B, N-[3-[1-(3-tert-Butyl-phenyl)-4-methoxy-cyclohexylamino]-1-(3,5-difluoro-benzyl)-2-hydroxy-propyl]-acetamide]",1.5
5,"CC(=O)NC(Cc1cc(F)cc(F)c1)C(O)CNC1(c2cccc(Br)c2)CCC2(CC1)OCCO2 (centres unmarked) [Example 196B-40, N-[3-[8-(3-Bromo-phenyl)-1,4-dioxa-spiro[4.5]dec-8-ylamino]-1-(3,5-difluoro-benzyl)-2-hydroxy-propyl]-acetamide]",2.8
6,"CC(=O)NC(Cc1cc(F)cc(F)c1)C(O)CNC1(c2cccc(C(C)(C)C)c2)CCC(NC=O)CC1 (single isomer, unassigned) [196B-36 Diastereomer A, N-(4-(1-(3-tert-butylphenyl)-4-formamidocyclohexylamino)-1-(3,5-difluorophenyl)-3-hydroxybutan-2-yl)acetamide]",26.5
7,"COC1CCC(NCC(O)C(Cc2cc(F)cc(F)c2)NC(C)=O)(c2cccc(C(C)(C)C)c2)CC1 (single isomer, unassigned) [196B-3 Diastereomer A, N-[3-[1-(3-tert-Butyl-phenyl)-4-methoxy-cyclohexylamino]-1-(3,5-difluoro-benzyl)-2-hydroxy-propyl]-acetamide]",1.8 and 1.5
8,"CC(=O)NC(Cc1cc(F)cc(F)c1)C(O)CNC1(c2cccc(C(C)(C)C)c2)CCC(O)(CO)CC1 (single isomer, unassigned) [196B-27 Diastereomer B, N-[3-[1-(3-tert-Butyl-phenyl)-4-hydroxy-4-hydroxymethyl-cyclohexylamino]-1-(3,5-difluoro-benzyl)-2-hydroxy-propyl]-acetamide]",>5.3
9,"CC(=O)NC(Cc1cc(F)cc(F)c1)C(O)CNC1(c2cccc(C(C)(C)C)c2)CCC(C(F)(F)F)CC1 (single isomer, unassigned) [196B-21 Diastereomer A, N-(4-(1-(3-tert-butylphenyl)-4-(trifluoromethyl)cyclohexylamino)-1-(3,5-difluorophenyl)-3-hydroxybutan-2-yl)acetamide]",6.4
10,"CNC1CCC(NCC(O)C(Cc2cc(F)cc(F)c2)NC(C)=O)(c2cccc(C(C)(C)C)c2)CC1 (single isomer, unassigned) [196B-16 Diastereomer A, N-(4-(1-(3-tert-butylphenyl)-4-(methylamino)cyclohexylamino)-1-(3,5-difluorophenyl)-3-hydroxybutan-2-yl)acetamide]",>4.7
11,"COC(=O)NC1CCC(NCC(O)C(Cc2cc(F)cc(F)c2)NC(C)=O)(c2cccc(C(C)(C)C)c2)CC1 (single isomer, unassigned) [196B-29 Diastereomer A, methyl 4-(3-acetamido-4-(3,5-difluorophenyl)-2-hydroxybutylamino)-4-(3-tert-butylphenyl)cyclohexylcarbamate]",13.1
12,"CC(=O)NC(Cc1cc(F)cc(F)c1)C(O)CNC1(c2cccc(C(C)(C)C)c2)CCC(N)CC1 (single isomer, unassigned) [196B-18 Diastereomer A, N-(4-(1-(3-tert-butylphenyl)-4-aminocyclohexylamino)-1-(3,5-difluorophenyl)-3-hydroxybutan-2-yl)acetamide]",>8.4
13,"CC(=O)NC(Cc1cc(F)cc(F)c1)C(O)CNC1(c2cccc(C(C)(C)C)c2)CCC([S+](C)[O-])CC1 (single isomer, unassigned) [196B-24 Diastereomer B, N-(4-(1-(3-tert-butylphenyl)-4-(methylsulfinyl)cyclohexylamino)-1-(3,5-difluorophenyl)-3-hydroxybutan-2yl)acetamide]",3.0
14,"CC(=O)NC(Cc1cc(F)cc(F)c1)C(O)CNC1(c2cccc(C(C)(C)C)c2)CCN(CCC#N)CC1 (centres unmarked) [Example 196B-26, N-[3-[4-(3-tert-Butyl-phenyl)-1-(2-cyano-ethyl)-piperidin-4-ylamino]-1-(3,5-difluoro-benzyl)-2-hydroxy-propyl]-acetamide]",1.8

# Test system: A-beta
# Experiment: Efficacy of compounds to inhibit A-beta concentration (% inhibition vs vehicle control)
# Format: in vivo, rat
# Settings: cortex
# Method: Efficacious compounds of the present invention are those able to decrease the amount of A-beta produced compared to a control, where beta-secretase mediated cleavage is observed and measured in the absence of the compounds. Detection of efficacy can be by analysis of A-beta levels, for example, by immunoassay, fluorometric or chromogenic assay, HPLC, or other means of detection. The efficacy of the compounds of formula (I) was determined as a percentage inhibition corresponding to A-beta concentrations for tissue treated and untreated with compound.
# The invention encompasses compounds of formula (I) that are efficacious.
row,Compound,"Efficacy (% Inhibition, 100 mg/kg) cortex"
1,"CC(=O)NC(Cc1cc(F)cc(F)c1)C(O)CNC1(c2cccc(C(C)(C)C)c2)CCCCC1 (centres unmarked) [Example 195-1, N-[3-[1-(3-tert-Butyl-phenyl)-cyclohexylamino]-1-(3,5-difluoro-benzyl)-2-hydroxy-propyl]-acetamide]",62%
2,"CC(=O)NC(Cc1cc(F)cc(F)c1)C(O)CNC1(c2cccc(C(C)(C)C)c2)CCC(NO)CC1 (single isomer, unassigned) [195-8 Diastereomer A, N-(4-(1-(3-tert-butylphenyl)-4-(hydroxyamino)cyclohexylamino)-1-(3,5-difluorophenyl)-3-hydroxybutan-2-yl)acetamide]",7%
3,"CC(=O)NC(Cc1cc(F)cc(F)c1)C(O)CNC1(c2cccc(C(C)C)c2)CCC(=O)CC1 (centres unmarked) [Example 195-2, N-{1-(3,5-Difluoro-benzyl)-2-hydroxy-3-[1-(3-isopropyl-phenyl)-4-oxo-cyclohexylamino]-propyl}acetamide]",47%

# Same assay, conditions: plasma
row,Compound,"Efficacy (% Inhibition, 100 mg/kg) plasma"
1,"CC(=O)NC(Cc1cc(F)cc(F)c1)C(O)CNC1(c2cccc(C(C)(C)C)c2)CCCCC1 (centres unmarked) [Example 195-1, N-[3-[1-(3-tert-Butyl-phenyl)-cyclohexylamino]-1-(3,5-difluoro-benzyl)-2-hydroxy-propyl]-acetamide]",50%
2,"CC(=O)NC(Cc1cc(F)cc(F)c1)C(O)CNC1(c2cc(F)cc(C(C)(C)C)c2)CCCCC1 (centres unmarked) [Example 195-10, N-(4-(1-(3-tert-butyl-5-fluorophenyl)cyclohexylamino)-1-(3,5-difluorophenyl)-3-hydroxybutan-2-yl)acetamide]",30%
3,"COC1CCC(NCC(O)C(Cc2cc(F)cc(F)c2)NC(C)=O)(c2cccc(C(C)(C)C)c2)CC1 (centres unmarked) [Example 195-6, N-[3-[1-(3-tert-Butyl-phenyl)-4-methoxy-cyclohexylamino]-1-(3,5-difluoro-benzyl)-2-hydroxy-propyl]-acetamide]",49%
4,"CC(=O)NC(Cc1cc(F)cc(F)c1)C(O)CNC1(c2cccc(-n3cccn3)c2)CCCCC1 (centres unmarked) [Example 195-4, N-{1-(3,5-Difluoro-benzyl)-2-hydroxy-3-[1-(3-pyrazol-1-yl-phenyl)-cyclohexylamino]-propyl}-acetamide]",67%
5,"CC(=O)NC(Cc1cc(F)cc(F)c1)C(O)CNC1(c2cccc(C(C)C)c2)CCC(=O)CC1 (centres unmarked) [Example 195-2, N-{1-(3,5-Difluoro-benzyl)-2-hydroxy-3-[1-(3-isopropyl-phenyl)-4-oxo-cyclohexylamino]-propyl}acetamide]",59%
6,"CC(=O)NC(Cc1cc(F)cc(F)c1)C(O)CNC1(c2cccc(C(C)(C)C)c2)CCC(=O)CC1 (centres unmarked) [Example 195-3, N-[3-[1-(3-tert-Butyl-phenyl)-4-oxo-cyclohexylamino]-1-(3,5-difluoro-benzyl)-2-hydroxy-propyl]-acetamide]",58%
7,"CSC1CCC(NCC(O)C(Cc2cc(F)cc(F)c2)NC(C)=O)(c2cccc(C(C)(C)C)c2)CC1 (centres unmarked) [Example 195-9, N-[3-[1-(3-tert-Butyl-phenyl)-4-methylsulfanyl-cyclohexylamino]-1-(3,5-difluoro-benzyl)-2-hydroxy-propyl]-acetamide]",38%
8,"CONC1CCC(NCC(O)C(Cc2cc(F)cc(F)c2)NC(C)=O)(c2cccc(C(C)(C)C)c2)CC1 (single isomer, unassigned) [195-7 Diastereomer A, N-(4-(1-(3-tert-butylphenyl)-4-(methoxyamino)cyclohexylamino)-1-(3,5-difluorophenyl)-3-hydroxybutan-2-yl)acetamide]",50%
9,"CC(=O)NC(Cc1cc(F)cc(F)c1)C(O)CNC1(c2cccc(C(C)(C)C)c2)CCC(O)CC1 (single isomer, unassigned) [195-5 Diastereomer A, N-[3-[1-(3-tert-Butyl-phenyl)-4-hydroxy-cyclohexylamino]-1-(3,5-difluoro-benzyl)-2-hydroxy-propyl]-acetamide]",55%

# — US20060014790A1, “Methods of treatment of amyloidosis using spirocyclohexane aspartyl-protease inhibitors” (priority 2004, published 2006)
